As a reminder, the Ki is a dissociation constant, usually derived from enzyme kinetics or from competition with a known ligand.

Bridge positions count the residues as written; N and C are the ends. Peptide text beside a SMILES is read from it.

From US20240344241A1, “PROTEINACEOUS MOLECULES AND USES THEREFOR” (THE UNIVERSITY OF QUEENSLAND, priority 2021, published 2024) come the findings set out here.

Experiment [1] concerns the target T1, Human β-FXIIa (Homo sapiens, UniProt P00748).
T1 construct: Human β-FXIIa was obtained from Molecular Innovations, together with human FXa, human FXIa, human α-thrombin, and human plasma kallikrein; purchased Molecular Innovations; host or cells: purified from human plasma
The experiment can be described thus: FXIIa competitive inhibition assay, fluorescent substrate Boc-QGR-MCA. It is filed as biochemical. From the text: Cyclic [I7F]MCoFx1 (also referred to as cyclic MCoFx6) was synthesized using solid phase peptide synthesis ([[…]] [SEQ ID NO: 97]). For this inhibitor, Tyr33 was mutated back to serine as per the original mRNA display screen (FIG. 1). Cyclic MCoFx6 was screened using a competitive inhibition assay, with the substrate being changed from a colorimetric substrate (Ac-QRFR-pNA in the data of Tables 7 and 10) to a fluorescent substrate (Boc-QGR-MCA) to allow the assay to be run with a lower concentration of enzyme. The assay was performed as described for Examples 2 and 3, except that the FXIIa concentration was 0.5 nM and the substrate concentration was 50 μM (KM=187 μM).
The new variants were screened using competitive inhibition assays, with the substrate being changed from a colorimetric substrate (Ac-QRFR-pNA in the data of Tables 7 and 10) to a fluorescent substrate (Boc-QGR-MCA) to allow the assay to be run with a lower concentration of enzyme. Assays were performed as described for Examples 2 and 3, except that the FXIIa concentration was 0.5 nM and the substrate concentration was 50 μM (KM=187 μM). […] The effect of amino acid substitutions within loop 2 (Arg12, Arg13), loop 5 (Ala25, Arg27) or loop 6 (Asp34) on the activity of cyclic MCoFx7 against FXIIa was determined (refer to Table 14). […] Additionally, mutating Arg to Glu (reversing the side chain charge) only led to two-fold weaker activity. The adjacent residue Arg13 could also be mutated to Lys with no change in activity. Within loop 5, mutating Ala25 to Lys produced a slight gain in activity, whereas the Ala to Pro mutation led to a slight decrease in activity. Both mutations at Arg27 led to losses in activity in the order of two-fold (His) or 3.2-fold (Gly).
(§1) The activity of acyclic and cyclic MCoFx1-5 and analogues thereof was assessed in competitive inhibition assays, as previously described in Swedberg et al. (2016) J Med Chem, 59: 7287-7292. Human β-FXIIa was obtained from Molecular Innovations, together with human FXa, human FXIa, human α-thrombin, and human plasma kallikrein. Human cationic trypsin and human plasmin were obtained from Sigma-Aldrich, and recombinant human matriptase was sourced from R&D Systems. Recombinant human urokinase (uPA) and recombinant human tissue plasminogen activator (tPA) were expressed in Expi293 cells, as previously described in Li et al. (2019) Chembiochem, 20: 46-50. FXIIa inhibition assays were performed in clear, low-binding 96-well plates using 250 μL (final volume) of assay buffer (0.1 M Tris-HCl pH 8.0, 0.1 M NaCl, 10 mM CaCl2 and 0.005% Triton X-100). Inhibitors were serially diluted and incubated with 10 nM FXIIa at room temperature to reach equilibrium. After adding 100 μM Ac-QRFR-pNA substrate (KM=162 μM), enzymatic activity was measured by monitoring release of the pNA moiety using a TECAN infinite M1000 Pro plate reader (A=405 nm, reading interval, 10 s; assay time course, 7 min). Assays were conducted in three times in duplicate. Substrate kinetic constants (Michaelis-Menten) and inhibition constants (Morrison K) were determined by non-linear regression using Prism 7 (GraphPad). Selectivity assays with off-target proteases were performed in a similar way, except that different concentrations of enzyme and substrate were used, as indicated in Table 16. For assays using a fluorescent substrate (peptide-4-methylcoumaryl-7-amide, MCA), black low-binding 96-well plates were used and activity was measured using a TECAN infinite M1000 pro plate reader (λex 360 nm, λem 460 nm, reading interval, 30 s; assay time course, 5-30 min).

The target of a further experiment is T2, bovine trypsin (Bos taurus, UniProt P00760).
T2 sequence (P00760 24-246): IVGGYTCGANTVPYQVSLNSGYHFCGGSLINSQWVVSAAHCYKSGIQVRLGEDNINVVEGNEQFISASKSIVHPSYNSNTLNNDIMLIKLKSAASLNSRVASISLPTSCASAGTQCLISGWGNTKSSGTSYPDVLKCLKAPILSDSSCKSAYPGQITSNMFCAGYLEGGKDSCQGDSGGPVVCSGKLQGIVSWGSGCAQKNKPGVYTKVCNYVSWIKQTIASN
As to the kind of experiment: Surface plasmon resonance binding to trypsin. Particulars: for affinity for trypsin (in words): SPR. (Surface plasmon resonance follows binding to a sensor surface in real time, without labels.)

Experiment [2] concerns the target T1, Human β-FXIIa. The experiment can be described thus: FXIIa competitive inhibition assay, colorimetric substrate Ac-QRFR-pNA. The experiment is classed as biochemical. Here is the method: as §1

T1 sequence (P00748 373-615 limits assumed, other chains not shown): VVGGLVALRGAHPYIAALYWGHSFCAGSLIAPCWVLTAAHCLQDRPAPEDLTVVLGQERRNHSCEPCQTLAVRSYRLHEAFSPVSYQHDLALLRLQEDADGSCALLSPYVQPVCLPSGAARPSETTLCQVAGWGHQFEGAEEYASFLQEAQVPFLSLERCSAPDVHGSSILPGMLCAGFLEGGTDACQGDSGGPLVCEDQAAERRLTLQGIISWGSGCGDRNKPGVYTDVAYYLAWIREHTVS

`CC[C@H](C)[C@@H]1NC(=O)CNC(=O)CNC(=O)[C@@H]2CCCN2C(=O)[C@H](CO)NC(=O)CNC(=O)[C@H](CO)NC(=O)CNC(=O)[C@@H]2CSSC[C@@H]3NC(=O)[C@H](CC(=O)O)NC(=O)[C@H](CO)NC(=O)[C@H](CC(=O)O)NC(=O)[C@H](CCCNC(=N)N)NC(=O)[C@H](CCCNC(=N)N)NC(=O)[C@@H]4CSSC[C@H](NC(=O)[C@H]([C@@H](C)CC)NC(=O)[C@H](CSSC[C@H](NC1=O)C(=O)N1CCC[C@H]1C(=O)N[C@@H](CCCNC(=N)N)C(=O)N[C@@H]([C@@H](C)CC)C(=O)NCC(=O)N[C@@H](CCCNC(=N)N)C(=O)N[C@@H](CC(C)C)C(=O)N4)NC(=O)[C@H](C)NC(=O)CNC(=O)[C@@H]1CCCN1C3=O)C(=O)N[C@@H](CCCNC(=N)N)C(=O)N[C@@H](C)C(=O)N[C@@H]([C@@H](C)O)C(=O)N[C@@H](CCCNC(=N)N)C(=O)N[C@@H](Cc1ccccc1)C(=O)N2` [Cyclic [D34P]MCoFx7] (cyclo(ACICRATRFCGSGSPGGICPRIGRLCRRDSDCPG); disulfide 2-19, 4-26, 10-32) displayed a Ki on Human β-FXIIa [1] of 0.091 nM.

As to `CC[C@H](C)[C@@H]1NC(=O)CNC(=O)CNC(=O)[C@H](CC(=O)O)NC(=O)[C@H](CO)NC(=O)CNC(=O)[C@H](CO)NC(=O)CNC(=O)[C@@H]2CSSC[C@@H]3NC(=O)[C@H](CC(=O)O)NC(=O)[C@H](CO)NC(=O)[C@H](CC(=O)O)NC(=O)[C@H](CCCNC(=N)N)NC(=O)[C@H](CCCNC(=N)N)NC(=O)[C@@H]4CSSC[C@H](NC(=O)[C@H]([C@@H](C)CC)NC(=O)[C@H](CSSC[C@H](NC1=O)C(=O)N1CCC[C@H]1C(=O)N[C@@H](CCCNC(=N)N)C(=O)N[C@@H]([C@@H](C)CC)C(=O)NCC(=O)N[C@@H](CCCNC(=N)N)C(=O)N[C@@H](CC(C)C)C(=O)N4)NC(=O)[C@H](C)NC(=O)CNC(=O)[C@@H]1CCCN1C3=O)C(=O)N[C@@H](CCCNC(=N)N)C(=O)N[C@@H](C)C(=O)N[C@@H]([C@@H](C)O)C(=O)N[C@@H](Cc1c[nH]cn1)C(=O)N[C@@H](Cc1ccccc1)C(=O)N2` [Cyclic [R27H]MCoFx7] (cyclo(ACICRATHFCGSGSDGGICPRIGRLCRRDSDCPG); disulfide 2-19, 4-26, 10-32), the affinity at Human β-FXIIa [1] corresponds to a Ki of 0.12 ± 0.008 nM.

`CC[C@H](C)[C@@H]1NC(=O)[C@@H]2CSSC[C@H](NC(=O)[C@H](CCCNC(=N)N)NC(=O)CNC(=O)CNC(=O)[C@@H](N)CC(=O)O)C(=O)N[C@@H](CS)C(=O)NCC(=O)NCC(=O)N[C@@H](Cc3ccc(O)cc3)C(=O)N[C@@H](CC(C)C)C(=O)N[C@@H](C(C)C)C(=O)N[C@H]3CSSC[C@H](NC1=O)C(=O)N[C@@H](C(C)C)C(=O)N[C@@H](Cc1ccccc1)C(=O)N[C@@H](CCCCN)C(=O)N[C@@H](CCCCN)C(=O)N[C@@H](Cc1c[nH]cn1)C(=O)N[C@H](C(=O)NCC(=O)N[C@@H](CO)C(=O)NCC(=O)N[C@@H](CO)C(=O)O)CSSC[C@H](NC(=O)[C@H](CC(=O)O)NC(=O)[C@H](CO)NC(=O)[C@H](CC(=O)O)NC(=O)[C@H](CCCNC(=N)N)NC(=O)[C@H](CCCNC(=N)N)NC3=O)C(=O)N1CCC[C@H]1C(=O)NCC(=O)N[C@@H](C)C(=O)N2` [MCoFx5 acyclic] (H-DGGRCCGGYLVCRRDSDCPGACICVFKKHCGSGS-OH; disulfide 5-22, 12-24, 18-30): the “affinity for trypsin (in words)” value on bovine trypsin is “Neither aMCoFx5 nor cMCoFx5 showed detectable affinity for trypsin”. The “KD (nM) Trypsin Acyclic” value on bovine trypsin (Table 8, acyclic form) is recorded as “No binding”.

Turning to `CC[C@H](C)[C@@H]1NC(=O)CNC(=O)CNC(=O)[C@H](CC(=O)O)NC(=O)[C@H](CO)NC(=O)CNC(=O)[C@H](CO)NC(=O)CNC(=O)[C@@H]2CSSC[C@@H]3NC(=O)[C@H](CC(=O)O)NC(=O)[C@H](CO)NC(=O)[C@H](CC(=O)O)NC(=O)[C@H](CCCNC(=N)N)NC(=O)[C@H](C(C)C)NC(=O)[C@@H]4CSSC[C@H](NC(=O)[C@H]([C@@H](C)CC)NC(=O)[C@H](CSSC[C@H](NC1=O)C(=O)N1CCC[C@H]1C(=O)N[C@@H](CCCNC(=N)N)C(=O)N[C@@H]([C@@H](C)CC)C(=O)NCC(=O)N[C@@H](CCCNC(=N)N)C(=O)N[C@@H](CC(C)C)C(=O)N4)NC(=O)[C@H](C)NC(=O)CNC(=O)[C@@H]1CCCN1C3=O)C(=O)N[C@@H](CCCNC(=N)N)C(=O)N[C@@H](C)C(=O)N[C@@H]([C@@H](C)O)C(=O)N[C@@H](CCCNC(=N)N)C(=O)N[C@@H](Cc1ccccc1)C(=O)N2` [Cyclic [R12V]MCoFx7] (cyclo(ACICRATRFCGSGSDGGICPRIGRLCVRDSDCPG); disulfide 2-19, 4-26, 10-32), at Human β-FXIIa [1], the Ki worked out at 0.069 ± 0.005 nM.

Regarding `CC[C@H](C)[C@@H]1NC(=O)[C@@H]2CSSC[C@@H]3NC(=O)[C@H](CCCNC(=N)N)NC(=O)CNC(=O)CNC(=O)[C@H](CC(=O)O)NC(=O)[C@H](CO)NC(=O)CNC(=O)[C@H](CO)NC(=O)CNC(=O)[C@@H]4CSSC[C@H](NC(=O)[C@H](CC(=O)O)NC(=O)[C@H](CO)NC(=O)[C@H](CC(=O)O)NC(=O)[C@H](CCCNC(=N)N)NC(=O)[C@H](CCCNC(=N)N)NC(=O)[C@H](CSSC[C@H](NC1=O)C(=O)N[C@@H](C(C)C)C(=O)N[C@@H](Cc1ccccc1)C(=O)N[C@@H](CCCCN)C(=O)N[C@@H](CCCCN)C(=O)N[C@@H](Cc1c[nH]cn1)C(=O)N4)NC(=O)[C@H](C(C)C)NC(=O)[C@H](CC(C)C)NC(=O)[C@H](Cc1ccc(O)cc1)NC(=O)CNC(=O)CNC(=O)[C@H](CS)NC3=O)C(=O)N1CCC[C@H]1C(=O)NCC(=O)N[C@@H](C)C(=O)N2` [MCoFx5 cyclic] (cyclo(DGGRCCGGYLVCRRDSDCPGACICVFKKHCGSGS); disulfide 5-22, 12-24, 18-30), the “affinity for trypsin (in words)” value on bovine trypsin is reported as “Neither aMCoFx5 nor cMCoFx5 showed detectable affinity for trypsin”. Besides, the “KD (nM) Trypsin Cyclic” value on bovine trypsin (Table 8, cyclic form) is given as “No binding”.

Consider `CC[C@H](C)[C@@H]1NC(=O)[C@H](CCCNC(=N)N)NC(=O)[C@@H]2CCCN2C(=O)[C@@H](NC(=O)[C@@H](NC(=O)[C@@H](N)CCCNC(=N)N)[C@@H](C)CC)CSSC[C@@H]2NC(=O)[C@H](C)NC(=O)CNC(=O)[C@@H]3CCCN3C(=O)[C@@H]3CSSC[C@@H](C(=O)NCC(=O)O)NC(=O)[C@H](Cc4ccccc4)NC(=O)[C@H](CCCNC(=N)N)NC(=O)[C@H]([C@@H](C)O)NC(=O)[C@H](C)NC(=O)[C@H](CCCNC(=N)N)NC(=O)[C@H](CSSC[C@H](NC(=O)[C@H](CC(C)C)NC(=O)[C@H](CCCNC(=N)N)NC(=O)CNC1=O)C(=O)N[C@@H](CCCNC(=N)N)C(=O)N[C@@H](CCCNC(=N)N)C(=O)N[C@@H](CC(=O)O)C(=O)N[C@@H](CO)C(=O)N[C@@H](CC(=O)O)C(=O)N3)NC(=O)[C@H]([C@@H](C)CC)NC2=O` [SEQ ID NO: 84] (H-RICPRIGRLCRRDSDCPGACICRATRFCG-OH; disulfide 3-20, 10-22, 16-28), for which the Ki at Human β-FXIIa [2] is 1.4 nM.
